Laboratory results reported in patent US8969312B2, “Low side effect pharmaceutical composition containing antituberculosis drugs” (priority 2011, dated 2015).

What follows are compounds tested on amidase (assay: Mouse liver microsomal amidase, isoniazid to isonicotinic acid). Settings: 1 uM.
Format: biochemical

Row | SMILES | Amidase inhibition [%]
1 | CCCCC[C@H](O)CC(=O)CCc1ccc(O)c(OC)c1 [6-Gingerol] | −8.2 ± 9.0
2 | Oc1cc(O)c2c(c1)O[C@H](c1ccc(O)c(O)c1)[C@@H](O)C2 [(+)-Catechin] | −2.1 ± 1.1
3 | O=C1c2c(O)cc(O)cc2O[C@H](c2ccc(O)c(O)c2)[C@H]1O [(+)-Taxifolin] | 36.8 ± 11.5
4 | Oc1cc(O)c2c(c1)O[C@H](c1ccc(O)c(O)c1)[C@H](O)C2 [(−)-Epicatechin] | −25.8 ± 6.2
5 | COc1c(O)cc2oc(Oc3ccc(O)cc3)cc(=O)c2c1O [Capillarisin] | −4.1 ± 8.1
6 | COc1ccc([C@@H]2CC(=O)c3c(O)cc(O)cc3O2)cc1O [Hesperetin] | −40.5 ± 24.8
7 | O=C(CCc1ccc(O)cc1)c1c(O)cc(O)cc1O [Phloretin] | 16.5 ± 14.3
8 | O=C(O)c1ccc(O)c(O)c1 [Protocatechuic acid] | 11.5 ± 4.0
9 | O=c1c(-c2ccc(O)cc2)coc2c([C@@H]3O[C@H](CO)[C@@H](O)[C@H](O)[C@H]3O)c(O)ccc12 [Puerarin] | 40.9 ± 3.6
10 | O=c1ccc2ccc(O)cc2o1 [Umbelliferone] | 24.1 ± 11.6
11 | O=C(O)c1cc(O)c(O)c(O)c1 [gallic acid] | 12.0 ± 5.5
12 | O=C(O)/C=C/c1ccccc1 [trans-Cinnamic acid] | −11.9 ± 2.3

Same assay, conditions: 10 uM

Row | SMILES | Amidase inhibition [%]
13 | CCCCC[C@H](O)CC(=O)CCc1ccc(O)c(OC)c1 [6-Gingerol] | 0.5 ± 0.7
14 | Oc1cc(O)c2c(c1)O[C@H](c1ccc(O)c(O)c1)[C@@H](O)C2 [(+)-Catechin] | −11.8 ± 20.2
15 | O=C1c2c(O)cc(O)cc2O[C@H](c2ccc(O)c(O)c2)[C@H]1O [(+)-Taxifolin] | 32.2 ± 5.8
16 | Oc1cc(O)c2c(c1)O[C@H](c1ccc(O)c(O)c1)[C@H](O)C2 [(−)-Epicatechin] | −4.8 ± 10.5
17 | COc1c(O)cc2oc(Oc3ccc(O)cc3)cc(=O)c2c1O [Capillarisin] | 18.2 ± 3.7
18 | COc1ccc([C@@H]2CC(=O)c3c(O)cc(O)cc3O2)cc1O [Hesperetin] | 5.4 ± 2.5
19 | O=C(CCc1ccc(O)cc1)c1c(O)cc(O)cc1O [Phloretin] | 9.8 ± 5.4
20 | O=C(O)c1ccc(O)c(O)c1 [Protocatechuic acid] | 10.9 ± 2.0
21 | O=c1c(-c2ccc(O)cc2)coc2c([C@@H]3O[C@H](CO)[C@@H](O)[C@H](O)[C@H]3O)c(O)ccc12 [Puerarin] | 33.0 ± 3.3
22 | O=c1ccc2ccc(O)cc2o1 [Umbelliferone] | −1.0 ± 13.2
23 | O=C(O)c1cc(O)c(O)c(O)c1 [gallic acid] | 20.0 ± 5.1
24 | O=C(O)/C=C/c1ccccc1 [trans-Cinnamic acid] | −1.4 ± 0.6

Same assay, conditions: 100 uM

Row | SMILES | Amidase inhibition [%]
25 | CCCCC[C@H](O)CC(=O)CCc1ccc(O)c(OC)c1 [6-Gingerol] | 22.6 ± 3.4
26 | Oc1cc(O)c2c(c1)O[C@H](c1ccc(O)c(O)c1)[C@@H](O)C2 [(+)-Catechin] | 1.3 ± 6.3
27 | O=C1c2c(O)cc(O)cc2O[C@H](c2ccc(O)c(O)c2)[C@H]1O [(+)-Taxifolin] | 36.4 ± 3.4
28 | Oc1cc(O)c2c(c1)O[C@H](c1ccc(O)c(O)c1)[C@H](O)C2 [(−)-Epicatechin] | 3.6 ± 4.3
29 | COc1c(O)cc2oc(Oc3ccc(O)cc3)cc(=O)c2c1O [Capillarisin] | 45.7 ± 4.2
30 | COc1ccc([C@@H]2CC(=O)c3c(O)cc(O)cc3O2)cc1O [Hesperetin] | 19.0 ± 3.6
31 | O=C(CCc1ccc(O)cc1)c1c(O)cc(O)cc1O [Phloretin] | 29.9 ± 8.1
32 | O=C(O)c1ccc(O)c(O)c1 [Protocatechuic acid] | 15.7 ± 8.1
33 | O=c1c(-c2ccc(O)cc2)coc2c([C@@H]3O[C@H](CO)[C@@H](O)[C@H](O)[C@H]3O)c(O)ccc12 [Puerarin] | 17.9 ± 7.2
34 | O=c1ccc2ccc(O)cc2o1 [Umbelliferone] | 33.5 ± 8.2
35 | O=C(O)c1cc(O)c(O)c(O)c1 [gallic acid] | −20.2 ± 26.5
36 | O=C(O)/C=C/c1ccccc1 [trans-Cinnamic acid] | 12.6 ± 1.7

Same assay, conditions: 0.0005%

Row | SMILES | Amidase inhibition [%]
37 | CC1=CC(=O)NS(=O)(=O)O1 [Acesulfame K] | −12.4 ± 27.4
38 | CCCCCCCCCCCCOS(=O)(=O)[O-].[Na+] [Sodium lauryl sulfate] | 9.6 ± 5.0

Same assay, conditions: 0.005%

Row | SMILES | Amidase inhibition [%]
39 | CC1=CC(=O)NS(=O)(=O)O1 [Acesulfame K] | −167.2 ± 167.3
40 | CCCCCCCCCCCCOS(=O)(=O)[O-].[Na+] [Sodium lauryl sulfate] | 19.3 ± 2.7

Same assay, conditions: 0.05%

Row | SMILES | Amidase inhibition [%]
41 | CC1=CC(=O)NS(=O)(=O)O1 [Acesulfame K] | 24.3 ± 4.9
42 | CCCCCCCCCCCCOS(=O)(=O)[O-].[Na+] [Sodium lauryl sulfate] | 66.1 ± 2.1

What follows are compounds tested against cytochrome P450 2E1 (CYP2E1) (Homo sapiens, UniProt P05181) (assay: CYP2E1 High Throughput Inhibitor Screening Kit, cDNA synthesized microsomal CYP2E1 (MFC to HFC)). Settings: 16.5 μM.
Chain of cytochrome P450 2E1 (CYP2E1) (P05181 whole entry): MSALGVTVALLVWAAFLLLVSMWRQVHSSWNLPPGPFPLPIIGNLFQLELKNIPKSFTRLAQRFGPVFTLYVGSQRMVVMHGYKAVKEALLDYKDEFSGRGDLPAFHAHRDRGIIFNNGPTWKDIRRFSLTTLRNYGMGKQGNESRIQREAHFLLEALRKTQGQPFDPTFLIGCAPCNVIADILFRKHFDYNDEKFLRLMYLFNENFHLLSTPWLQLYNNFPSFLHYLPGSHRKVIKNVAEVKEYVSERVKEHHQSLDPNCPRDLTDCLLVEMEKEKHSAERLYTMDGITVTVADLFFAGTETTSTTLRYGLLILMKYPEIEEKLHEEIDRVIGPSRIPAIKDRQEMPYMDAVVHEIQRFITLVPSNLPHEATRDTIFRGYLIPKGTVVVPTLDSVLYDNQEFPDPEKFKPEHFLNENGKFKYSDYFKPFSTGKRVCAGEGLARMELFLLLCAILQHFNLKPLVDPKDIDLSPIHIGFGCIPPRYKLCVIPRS
Description: CYP2E1 High Throughput Inhibitor Screening Kit (BD Bioscience, USA) was used to screen the cytochrome P450 (CYP2E1) inhibitors from 22 Chinese medicine guiding drugs and 10 excipients and microsomal cytochrome P450 (CYP2E1) was synthesized from cDNA (BD Bioscience, USA). The principle of the screening kit is to measure the percentage of CYP2E inhibition, after adding the test sample to substrate MFC (7-Methoxy-4-trifluoromethyl coumarin) and cytochrome P450 (CYP2E1), by measuring the synthesis of standard CYP2E1 metabolite (HFC, 7-Hydroxy-4-trifluoromethyl coumarin) and use control HFC as baseline.
a. 149 μl NADPH-Cofactor Mix and 1 μl 20 mM DDTC were added to the #1 well in a 96-well plate and mixed thoroughly,
b. Add 100 μl Cofactor/acetonitrile mix to #2 to #12 wells, and well #1 to #8 are positive control. Well #9 and 10 are control and well #11 and #12 are blank,
c. […] Preparation of Experimental Groups: a. […] Transfer 50 μl from well #1 and #2 and added to well #3 and mixed thoroughly (triplicate for each sample), 3. Initiation and Termination of the Reaction: a. The 96-well plate was incubated at 37° C. for […], b. 100 μl of Enzyme/Substrate Mix was added to every well and mixed thoroughly except the blank wells, c. The 96-well plate was incubated at 37° C. for 40 min, d. 75 μl Stop Solution was added to every well and mixed thoroughly, e. Immediately add 100 μl Enzyme/Substrate Mix to blank wells and mixed thoroughly, f. Measure with a Fluoroskan Ascent FL (Thermo Electron Corporation, Finland) with excitation at 405 nm and emission at 538 nm, 4. The fluorescence was transverse into CYP 2E1 metabolite standard (HFC) concentration (pmol) and the percentage (%) of CYP 2E1 inhibition was calculated using control as baseline by following equation: […]

Row | SMILES | Inhibition of CYP 2E1 [%]
43 | Oc1cc(O)c2c(c1)O[C@H](c1ccc(O)c(O)c1)[C@@H](O)C2 [(+)-Catechin] | 41.53
44 | Oc1cc(O)c2c(c1)O[C@H](c1ccc(O)c(O)c1)[C@H](O)C2 [(−)-Epicatechin] | 18.27
45 | COc1c(O)cc2oc(Oc3ccc(O)cc3)cc(=O)c2c1O [Capillarisin] | 49.05
46 | O=c1cc(-c2ccccc2)oc2ccc3ccccc3c12 [β-naphthoflavone] | 6.52

Same assay, conditions: 66 μM

Row | SMILES | Inhibition of CYP 2E1 [%]
47 | Oc1cc(O)c2c(c1)O[C@H](c1ccc(O)c(O)c1)[C@@H](O)C2 [(+)-Catechin] | 16.45
48 | Oc1cc(O)c2c(c1)O[C@H](c1ccc(O)c(O)c1)[C@H](O)C2 [(−)-Epicatechin] | 2.57
49 | COc1c(O)cc2oc(Oc3ccc(O)cc3)cc(=O)c2c1O [Capillarisin] | 76.12
50 | O=c1cc(-c2ccccc2)oc2ccc3ccccc3c12 [β-naphthoflavone] | 15.40

Same assay, conditions: Table 3; minimum tested concentration (mg/L) × volume of human liver and intestine (3L)

Row | SMILES | Minimum Effective Dose [mg]
51 | CCCCC[C@H](O)CC(=O)CCc1ccc(O)c(OC)c1 [6-Gingerol] | 16
52 | Oc1cc(O)c2c(c1)O[C@H](c1ccc(O)c(O)c1)[C@@H](O)C2 [(+)-Catechin] | 16
53 | O=C1c2c(O)cc(O)cc2O[C@H](c2ccc(O)c(O)c2)[C@H]1O [(+)-Taxifolin] | 17
54 | Oc1cc(O)c2c(c1)O[C@H](c1ccc(O)c(O)c1)[C@H](O)C2 [(−)-Epicatechin] | 16
55 | COc1c(O)cc2oc(Oc3ccc(O)cc3)cc(=O)c2c1O [Capillarisin] | 17
56 | CCCCCCCCCCCC1=C(O)C(=O)C=C(O)C1=O [Embelin] | 16
57 | COc1ccc([C@@H]2CC(=O)c3c(O)cc(O)cc3O2)cc1O [Hesperetin] | 33
58 | O=C1C[C@@H](c2ccc(O)cc2)Oc2cc(O)cc(O)c21 [Narigenin] | 9
59 | CC(Cc1ccc(O)c(O)c1)C(C)Cc1ccc(O)c(O)c1 (stereo not shown) [Nordihydroguaiaretic acid] | 17
60 | O=C(CCc1ccc(O)cc1)c1c(O)cc(O)cc1O [Phloretin] | 15
61 | O=C(CCc1ccc(O)cc1)c1c(O)cc(O)cc1O[C@@H]1O[C@H](CO)[C@@H](O)[C@H](O)[C@H]1O [Phloridzin] | 24
62 | O=C(O)c1ccc(O)c(O)c1 [Protocatechuic acid] | 8
63 | O=c1c(-c2ccc(O)cc2)coc2c([C@@H]3O[C@H](CO)[C@@H](O)[C@H](O)[C@H]3O)c(O)ccc12 [Puerarin] | 23
64 | O=c1ccc2ccc(O)cc2o1 [Umbelliferone] | 9
65 | O=C(O)c1cc(O)c(O)c(O)c1 [gallic acid] | 9
66 | O=C(O)/C=C/c1ccccc1 [trans-Cinnamic acid] | 8
67 | O=c1cc(-c2ccccc2)oc2ccc3ccccc3c12 [β-naphthoflavone] | 15

What follows are compounds tested against CYP2E1 (Homo sapiens, UniProt P05181) (assay: Human liver microsomal CYP2E1, chlorzoxazone 6-hydroxylation). Settings: human, human liver microsomes, pH 7.4, probe Chlorzoxazone.
Chain of CYP2E1 (P05181 whole entry): as above

Row | SMILES | inhibition at 30 min, 0.08 % (w/v) [%] | inhibition at 30 min, […] (w/v) [%] | inhibition at 30 min, 16.5 µM [%] | inhibition at 30 min, 33 µM [%] | inhibition at 30 min, 66 µM [%]
68 | CC1=CC(=O)NS(=O)(=O)O1 [Acesulfame K] | 7.1 ± 2.3 | 3.9 ± 2.7 |  |  | 
69 | CCCCCCCCCCCCOS(=O)(=O)[O-].[Na+] [Sodium lauryl sulfate] |  |  | 4.6 ± 1.1 | 6.4 ± 0.9 | 4.9 ± 1.6

Same assay, conditions: human, microsomes, pH 7.4

Row | SMILES | inhibition at 30 min, 0.167 % (w/v) [%]
70 | CC1=CC(=O)NS(=O)(=O)O1 [Acesulfame K] | 14.5 ± 1.9

Each compound was assayed against human liver microsomal cytochrome P450 2E1 (CYP2E1) (Homo sapiens, UniProt P05181) in the same assay as above. Settings: 16.5 μM.
Chain of human liver microsomal cytochrome P450 2E1 (CYP2E1) (P05181 whole entry): as above

Row | SMILES | Inhibition of CYP 2E1 [%]
71 | COc1c(O)cc2oc(Oc3ccc(O)cc3)cc(=O)c2c1O [Capillarisin] | 32.89 ± 2.46

Same assay, conditions: 33 μM

Row | SMILES | Inhibition of CYP 2E1 [%]
72 | COc1c(O)cc2oc(Oc3ccc(O)cc3)cc(=O)c2c1O [Capillarisin] | 46.22 ± 2.65

Same assay, conditions: 66 μM

Row | SMILES | Inhibition of CYP 2E1 [%]
73 | COc1c(O)cc2oc(Oc3ccc(O)cc3)cc(=O)c2c1O [Capillarisin] | 57.31 ± 1.31

Same assay, conditions: Table 6; minimum tested concentration (mg/L) × volume of human liver and intestine (3 L)

Row | SMILES | Minimum Effective Dose [mg]
74 | CCCCC[C@H](O)CC(=O)CCc1ccc(O)c(OC)c1 [6-Gingerol] | 16
75 | COc1c(O)cc2oc(Oc3ccc(O)cc3)cc(=O)c2c1O [Capillarisin] | 17
76 | COc1ccc([C@@H]2CC(=O)c3c(O)cc(O)cc3O2)cc1O [Hesperetin] | 17
77 | O=C1C[C@@H](c2ccc(O)cc2)Oc2cc(O)cc(O)c21 [Narigenin] | 9
78 | CC(Cc1ccc(O)c(O)c1)C(C)Cc1ccc(O)c(O)c1 (stereo not shown) [Nordihydroguaiaretic acid] | 17
79 | O=C(CCc1ccc(O)cc1)c1c(O)cc(O)cc1O [Phloretin] | 15
80 | O=C(O)c1cc(O)c(O)c(O)c1 [gallic acid] | 9

Same assay, conditions: Table 7

Row | SMILES | Minimum Effective Dose [mg]
81 | CC1=CC(=O)NS(=O)(=O)O1 [Acesulfame K] | 10
82 | CCCCCCCCCCCCOS(=O)(=O)[O-].[Na+] [Sodium lauryl sulfate] | 14
